Source: patent publication US10414811B2, “Protease-resistant lipidated GLP-1 analogs” (MEDIMMUNE LIMITED, priority 2015, dated 2019)
Like-named read-outs stand apart in the source and are kept apart here.

Legend:
Assay type in all cases: cell-based
[1] = molecular target: T1, human GLP-1 receptor (GLP-1R) (Homo sapiens, UniProt P43220); test: cAMP assay, human GLP-1R cells
T1 construct: expressed in transfected cells
Method in brief: (§1)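 Peptide-stimulated cAMP measured by two-step HTRF after a 30 min room-temperature incubation with receptor-expressing cells (hGLP-1R, hGIPR at 1×10^5 cells/ml; hGCGR at 2×10^5 cells/ml). Duplicate dilutions; EC50 from 4-parameter logistic fit of % Delta F.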

[2] = molecular target: T2, human glucagon receptor (GCGR) (Homo sapiens, UniProt P47871); test: cAMP assay, human GCGR cells; conditions: cAMP assay
T2 construct: expressed in transfected cells
T2 sequence (P47871 26-477): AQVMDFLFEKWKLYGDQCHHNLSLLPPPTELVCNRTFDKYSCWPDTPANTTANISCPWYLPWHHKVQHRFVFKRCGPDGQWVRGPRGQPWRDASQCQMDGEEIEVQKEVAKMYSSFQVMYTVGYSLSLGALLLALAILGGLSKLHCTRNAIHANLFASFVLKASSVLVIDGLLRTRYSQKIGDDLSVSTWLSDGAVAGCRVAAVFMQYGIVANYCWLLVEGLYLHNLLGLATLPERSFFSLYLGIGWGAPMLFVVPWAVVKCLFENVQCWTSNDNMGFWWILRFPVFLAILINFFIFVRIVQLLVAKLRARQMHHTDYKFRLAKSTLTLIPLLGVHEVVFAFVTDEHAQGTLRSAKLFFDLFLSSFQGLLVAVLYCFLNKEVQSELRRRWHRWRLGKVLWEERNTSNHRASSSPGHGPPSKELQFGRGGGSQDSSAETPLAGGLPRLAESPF
Method in brief: as §1

[3] = molecular target: T3, human glucose-dependent insulinotropic peptide receptor (GIPR) (Homo sapiens, UniProt P48546); test: cAMP assay, human GIPR cells; conditions: cAMP assay
T3 construct: expressed in transfected cells
T3 sequence (P48546 22-466): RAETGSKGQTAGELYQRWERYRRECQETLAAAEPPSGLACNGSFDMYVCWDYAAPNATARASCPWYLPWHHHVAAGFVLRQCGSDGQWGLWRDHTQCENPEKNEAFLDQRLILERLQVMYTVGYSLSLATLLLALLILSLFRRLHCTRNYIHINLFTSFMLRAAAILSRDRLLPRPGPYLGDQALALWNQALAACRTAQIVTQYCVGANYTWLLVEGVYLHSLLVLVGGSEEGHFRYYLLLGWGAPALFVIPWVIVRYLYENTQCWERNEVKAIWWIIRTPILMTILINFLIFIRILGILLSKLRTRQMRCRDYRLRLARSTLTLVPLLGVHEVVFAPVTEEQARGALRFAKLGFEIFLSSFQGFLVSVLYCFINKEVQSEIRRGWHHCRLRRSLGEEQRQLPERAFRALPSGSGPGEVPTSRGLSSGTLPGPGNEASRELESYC
Method in brief: as §1

[4] = cAMP assay, first determination (n1), read-out: Primary assay EC50 GLP-1R n1
[5] = cAMP assay, second determination (n2), read-out: Primary assay EC50 GLP-1R n2
[6] = mean of n1 and n2, read-out: Mean pM GLP-1R
[7] = first determination (n1), read-out: Primary assay EC50 Gluc-R (n1)
[8] = second determination (n2), read-out: Primary assay EC50 Gluc-R (n2)
[9] = first determination (n1), read-out: Primary assay EC50 GIP-R (n1)
[10] = second determination (n2), read-out: Primary assay EC50 GIP-R (n2)

T1 sequence (P43220 24-463): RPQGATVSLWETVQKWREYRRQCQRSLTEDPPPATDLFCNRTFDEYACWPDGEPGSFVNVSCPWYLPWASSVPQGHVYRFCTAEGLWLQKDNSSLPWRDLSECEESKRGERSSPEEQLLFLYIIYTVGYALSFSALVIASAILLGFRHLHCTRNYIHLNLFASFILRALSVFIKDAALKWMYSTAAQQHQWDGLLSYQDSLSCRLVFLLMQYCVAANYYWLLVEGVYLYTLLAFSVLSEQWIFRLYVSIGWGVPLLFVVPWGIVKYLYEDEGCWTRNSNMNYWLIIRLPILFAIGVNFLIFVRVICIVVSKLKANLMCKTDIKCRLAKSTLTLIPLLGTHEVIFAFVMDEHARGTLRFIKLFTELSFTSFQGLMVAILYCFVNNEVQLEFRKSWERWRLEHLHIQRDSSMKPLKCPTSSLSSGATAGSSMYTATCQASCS

| EC50 [1, 4] | EC50 [1, 5] | EC50 [1, 6] | EC50 [2, 7] | EC50 [2, 8] | EC50 [3, 9] | EC50 [3, 10] | Structure (SMILES) |
| --- | --- | --- | --- | --- | --- | --- | --- |
| 15 pM | 21 pM | 18.2 pM | ≥ 28000 pM | ≥ 28000 pM | ≥ 28000 pM | ≥ 28000 pM | CCCCCCCCCCCC(=O)N[C@@H](CCC(=O)NCCCC[C@H](NC(=O)[C@H](C)NC(=O)[C@H](C)NC(=O)[C@H](CCC(=O)O)NC(=O)CNC(=O)[C@H](CCC(=O)O)NC(=O)[C@H](CC(C)C)NC(=O)[C@](C)(Cc1ccccc1)NC(=O)[C@H](CO)NC(=O)[C@](C)(CO)NC(=O)[C@@H](NC(=O)[C@H](CC(=O)O)NC(=O)[C@H](CO)NC(=O)[C@@H](NC(=O)[C@](C)(Cc1ccccc1)NC(=O)[C@H](CO)NC(=O)CNC(=O)[C@H](CCC(=O)O)NC(=O)C(C)(C)NC(=O)[C@@H](N)Cc1c[nH]cn1)[C@@H](C)O)C(C)C)C(=O)N[C@@H](CCC(=O)O)C(=O)N[C@@](C)(Cc1ccccc1)C(=O)N[C@H](C(=O)N[C@@H](C)C(=O)N[C@@](C)(Cc1ccccc1)C(=O)N[C@H](C(=O)N[C@H](C(=O)N[C@@](C)(CCCCN)C(=O)NCC(=O)NCC(N)=O)C(C)C)C(C)C)[C@@H](C)CC)C(=O)O [compound 128] |
| 16 pM | 13 pM | 14.4 pM | ≥ 26000 pM | ≥ 26000 pM | ≥ 26000 pM | ≥ 26000 pM | CCCCCCCCCCCC(=O)N[C@@H](CCC(=O)N[C@@H](CCC(=O)N[C@@H](CCC(=O)NCCCC[C@H](NC(=O)[C@H](C)NC(=O)[C@H](C)NC(=O)[C@H](CCC(=O)O)NC(=O)CNC(=O)[C@H](CCC(=O)O)NC(=O)[C@H](CC(C)C)NC(=O)[C@](C)(Cc1ccccc1)NC(=O)[C@H](CO)NC(=O)[C@](C)(CO)NC(=O)[C@@H](NC(=O)[C@H](CC(=O)O)NC(=O)[C@H](CO)NC(=O)[C@@H](NC(=O)[C@](C)(Cc1ccccc1)NC(=O)[C@H](CO)NC(=O)CNC(=O)[C@H](CCC(=O)O)NC(=O)C(C)(C)NC(=O)[C@@H](N)Cc1c[nH]cn1)[C@@H](C)O)C(C)C)C(=O)N[C@@H](CCC(=O)O)C(=O)N[C@@](C)(Cc1ccccc1)C(=O)N[C@H](C(=O)N[C@@H](C)C(=O)N[C@@](C)(Cc1ccccc1)C(=O)N[C@H](C(=O)N[C@H](C(=O)N[C@@](C)(CCCCN)C(=O)NCC(=O)NCC(N)=O)C(C)C)C(C)C)[C@@H](C)CC)C(=O)O)C(=O)O)C(=O)O [compound 130] |
| 14 pM | 9.9 pM | 11.7 pM | ≥ 29000 pM | ≥ 29000 pM | ≥ 29000 pM | ≥ 29000 pM | CCCCCCCCCCCC(=O)NCCCCCC(=O)NCCCC[C@H](NC(=O)[C@H](C)NC(=O)[C@H](C)NC(=O)[C@H](CCC(=O)O)NC(=O)CNC(=O)[C@H](CCC(=O)O)NC(=O)[C@H](CC(C)C)NC(=O)[C@](C)(Cc1ccccc1)NC(=O)[C@H](CO)NC(=O)[C@](C)(CO)NC(=O)[C@@H](NC(=O)[C@H](CC(=O)O)NC(=O)[C@H](CO)NC(=O)[C@@H](NC(=O)[C@](C)(Cc1ccccc1)NC(=O)[C@H](CO)NC(=O)CNC(=O)[C@H](CCC(=O)O)NC(=O)C(C)(C)NC(=O)[C@@H](N)Cc1c[nH]cn1)[C@@H](C)O)C(C)C)C(=O)N[C@@H](CCC(=O)O)C(=O)N[C@@](C)(Cc1ccccc1)C(=O)N[C@H](C(=O)N[C@@H](C)C(=O)N[C@@](C)(Cc1ccccc1)C(=O)N[C@H](C(=O)N[C@H](C(=O)N[C@@](C)(CCCCN)C(=O)NCC(=O)NCC(N)=O)C(C)C)C(C)C)[C@@H](C)CC [compound 131] |
